According to patent publication US4460503A, “Tuberculine active peptides and a process for preparing same by chemical synthesis” (priority 1983, dated 1984):
Where a SMILES comes first, the peptide text is derived from it. Where no end group is shown, it is not given here.

Legend:
[1] = peptides obtained after enzymatic digestion of the tuberculin-active protein; cited from earlier work
[2] = tested on: guinea pigs sensitized with heat-killed M. bovis BCG-Pasteur; experiment: Tuberculin skin test in BCG-sensitized guinea pigs; type: in vivo; conditions: for skin reaction: 200 μg dose in 100 μl PBS intradermally; for skin reaction / color intensity of skin reaction: after 24 h; for color intensity of skin reaction: 200 μg dose intradermally; for enduration: 200 μg peptide intradermally
Protocol: (§1) The tuberculin tests were carried out on guinea pigs sensitized 6 weeks before with heat-killed Mycobacterium tuberculosis strain Peurois or M. bovis BCG-Pasteur.
(§2) Doses of 200 μg of the octopeptide of formula (I) or of the hexadecapeptide of formula (II) in 100 µl of PBS buffer containing Tween 80, were administered intradermally in the ventral side of guinea pigs sensitized as mentioned above.
(§3) The appearance of a delayed-type tuberculin reaction was observed 24 h and 48 h after the injection.

[3] = tested on: anti-octapeptide antiserum; type: binding, Rabbits
[4] = tested on: guinea pigs sensitized with heat-killed Mycobacterium tuberculosis strain Peurois; experiment: Tuberculin skin test in M. tuberculosis strain Peurois-sensitized guinea pigs; conditions: 200 μg dose, after 24 h
Protocol: as §1, §2, §3

BCG-infected mice = conditions: cited from earlier work
[5] = tested on: Mycobacterium tuberculosis-sensitized guinea pigs; conditions: cited from earlier work

DGGSESEGK [nonapeptide 61-69]
tuberculin activity in skin tests [1]: residual tuberculin activity

DGGSESEGKNGSQMRL [hexadecapeptide of formula (II)]
skin reaction [2]: 8 mm | color intensity of skin reaction [2]: low color intensity | enduration [2]: little or no enduration | amount required to displace half of the label in radioimmunoassays [3]: 500 ng | level of recognition relative to octapeptide of formula (I) ([3]; taking into account the molecular weight): 0.1% | enduration (average) [4]: 12 mm | erythematous area, diameter (average) [4]: 11 mm

NGSQMRL [synthetic heptapeptide]
tuberculin activity (BCG-infected mice): devoid of any tuberculin activity | tuberculin activity in skin tests [5]: devoid of any tuberculin activity

NGSQMR [hexapeptide 70-75]
tuberculin activity in skin tests [1]: residual tuberculin activity

N[C@@H](CC(=O)O)C(=O)NCC(=O)NCC(=O)N[C@@H](CO)C(=O)N[C@@H](CCC(=O)O)C(=O)N[C@@H](CO)C(=O)N[C@@H](CCC(=O)O)C(=O)NCC(=O)O [octapeptide of formula (I), Asp-Gly-Gly-Ser-Glu-Ser-Glu-Gly] (H-DGGSESEG-OH)
skin reaction [2]: 4 mm | color intensity of skin reaction [2]: low color intensity | enduration [2]: little or no enduration | amount required to displace half of the label in radioimmunoassays [3]: 0.25 ng
